Literature values, collected in patent US11672781B2, “Metaxalone formulations” (PRANA BIOSCIENCES INC, priority 2018, dated 2023).

Details: independent of pH across the physiological pH range found in the GI tract

Cc1cc(C)cc(OCC2CNC(=O)O2)c1 (stereo not shown) [metaxalone, 5-[(3,5-dimethylphenoxy)methyl]-2-oxazolidinone]
Aqueous solubility: less than 50 ug/ml
